For test [1], the system named is PAF-Induced Platelet Count Decrease. Briefly: PAF Induced Platelet Count Decrease. In kind it is in vivo, guinea pig. The note with it: for inhibition in vivo at 3 mg/kg: Cavia porcellus, Platelet, 3 mg/Kg (route not given), read-out: Percent Inhib. of PAF-Induced Platelet Count Decrease, 3 mg/Kg. As to the method:
PAF Induced Platelet Count Decrease
Male Hartley guinea pigs weighing between 500 and 900 grams were fed standard guinea pig chow and tap water ad libitum. PAF was solubilized in ethanol and stored as a 2 mM stock solution at -70° C. The stock solutuion of PAF was diluted to 1 pM in Tris buffer pH 7.4 and 0.1% BSA for all experiments.
(a) Intravenous Procedure
Guinea pigs were anesthetized with urethane (1.6 g/kg, i.p.). A catheter (PE50) was introduced into the right carotid artery for withdrawing blood. A second catheter PE10) was introduced into the jugular vein for injecting drugs and for administering the PAF challenge (75 ng/kg, i.v.). A control blood sample was obtained and platelets were counted in a whole blood platelet analyzer. PAF was then given and blood samples were taken 15, 30, and 60 seconds after the challenge for platelet counts. Fifteen minutes later, selected concentrations of the test compound were solubilized in DMSO and injected intravenously into a group of 4-6 animals. Only one concentration of antagonist was used in each animal group. Fifteen minutes after drug injection, blood smaples were taken before and 15, 30, and 60 sec after the PAF challenge, and analyzed for platelet number.
Animals were anesthetized with sodium pentobarbital (35 mg/kg. i.p.) and the caritoid artery and jugular vein were cannulated as described above. The cannulae were exteriorized at the base of the neck and the animals were allowed to recover. At least 18 hours after surgery, conscious unrestrained guinea pigs were used in the experiment. The animals were challenged two time with PAF (120 ng/kg. i.v.); the first to establish a consistent response to PAF and the second to serve as a control for the PAF challenge. Blood samples were taken before and 15, 30, and 45 seconds after PAF challenge and platelets were counted. Thirty minutes after the control PAF challenge, the animal were orally dosed with either gum acacia or the test compound. Animals were then challenged with PAF at 1, 3, 5, and 24 hours after the administration of the drug.
Data Analysis and Statistics
The % change, i.e., the difference in platelet number before and after PAF challenge was calculated by: [formula]
Statistical significance (p<0.05) of the difference between the mean PAF control and mean drug treated activity was determined with paried Students's t-test.

Test [2] concerns the target T1, PAF Binding, dog platelets (Canis lupus familiaris, UniProt A0A8I3NSH0).
T1 construct: Washed platelets were prepared by resuspending the platelet pellet once with PBS containing 1 mM EDTA; from tissue; host or cells: washed platelets from dog blood
T1 sequence (A0A8I3NSH0 1-343): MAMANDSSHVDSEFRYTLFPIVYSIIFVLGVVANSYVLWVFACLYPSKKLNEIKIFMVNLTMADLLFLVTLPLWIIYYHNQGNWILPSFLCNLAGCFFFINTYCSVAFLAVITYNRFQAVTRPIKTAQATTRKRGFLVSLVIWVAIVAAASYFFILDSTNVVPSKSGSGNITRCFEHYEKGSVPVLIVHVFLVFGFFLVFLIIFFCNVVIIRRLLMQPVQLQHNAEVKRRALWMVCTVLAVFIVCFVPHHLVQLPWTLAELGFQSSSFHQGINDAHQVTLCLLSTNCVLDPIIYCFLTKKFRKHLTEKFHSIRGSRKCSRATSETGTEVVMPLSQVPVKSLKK
Briefly: PAF Binding Assay (inhibition of 3H-PAF binding to washed dog platelets). The following applies: dog platelets, 3H-PAF, 10 minutes at room temperature; read-out: Inhib of PAF Binding IC50. In short, it runs like this: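 Washed dog platelets (2×10^7 per tube, in 0.1% BSA-PBS) incubated 10 min at room temperature with 3H-PAF and test analogs. Bound ligand separated by 1 min centrifugation through silicone oil; platelet pellet radioactivity counted by liquid scintillation.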

Test [3] relates to PAF-Induced Bronchoconstriction. Briefly: PAF Induced Bronchoconstriction Assay. In kind it is in vivo, guinea pig. The following applies: for inhibition in vivo at 50 mg/kg: Cavia porcellus, po, 50 mg/Kg p.o., 2-hour pretreatment, read-out: Percent Inhib. of PAF-Induced Bronchoconstriction, 50 mg/Kg p.o.; for Percent Inhib. of PAF-Induced Bronchoconstriction, mg/Kg i.v.: i.v. (dose not given), 1 minute pretreatment, PAF 1.0 μg/kg i.v. In short, it runs like this: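 Male Hartley guinea pigs, urethane-anesthetized (2 g/kg i.p.), ventilated, with succinylcholine 1.2 mg/kg i.v. and propranolol 0.1 mg/kg i.v. pretreatment. Compound given i.v. 1 min or by oral gavage 2 h before i.v. PAF challenge at 1.0 μg/kg. Peak tracheal pressure rise over baseline compared with control mean gives % inhibition.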

As to `COc1cccc(C(=C/C=C/C(=O)NCCCCc2cccnc2)c2cccc(OC)c2)c1` [(E)-5,5-bis (3-methoxyphenyl)-N-[4-(3-pyridinyl)butyl]-2,4-pentadienamide], in test [1], the “Percent Inhib. of PAF-Induced Platelet Count Decrease, 30 mg/Kg p.o.” value stood at 48% and the inhibition in vivo at 3 mg/kg was 75%. In addition, the IC50 – broadly, the concentration needed to halve the response being measured – in test [2] was determined as 2 nM. For the same molecule, in test [3], the inhibition in vivo at 50 mg/kg was determined as 31 ± 11% and the “Percent Inhib. of PAF-Induced Bronchoconstriction, mg/Kg i.v.” value is 69 ± 7%.

With `O=C(/C=C/C=C(c1cccc(F)c1)c1cccc(F)c1)NCCCCc1cccnc1` [(E)-5,5-bis(3-Fluorophenyl)-N-[4-(3-pyridinyl)butyl]-2,4-pentadienamide], in test [1], the “Percent Inhib. of PAF-Induced Platelet Count Decrease, 30 mg/Kg p.o.” value is given as 58% and the inhibition in vivo at 3 mg/kg amounted to 61%. The IC50 in test [2] stood at 20 nM. For the same molecule, in test [3], the inhibition in vivo at 50 mg/kg is 37 ± 11% and the “Percent Inhib. of PAF-Induced Bronchoconstriction, mg/Kg i.v.” value is on record as 72 ± 16%.

Turning to `COc1ccc(C(=C/C=C/C(=O)NCCCCc2cccnc2)c2ccc(OC)cc2)cc1` [(E)-5,5-bis(4-Methoxyphenyl)-N-[4-(3-pyridinyl)butyl]-2,4-pentadienamide], in test [1], the “Percent Inhib. of PAF-Induced Platelet Count Decrease, 30 mg/Kg p.o.” value is reported as 45% and the inhibition in vivo at 3 mg/kg was determined as 40%. Also, in test [2], the IC50 came out at 25 nM. Further, in test [3], the inhibition in vivo at 50 mg/kg is 82 ± 12% and the “Percent Inhib. of PAF-Induced Bronchoconstriction, mg/Kg i.v.” value amounted to 92 ± 3%.

In the case of `O=C(/C=C/C=C(c1ccc(Cl)cc1)c1ccc(Cl)cc1)NCCCCc1cccnc1` [(E)-5,5-bis(4-chlorophenyl)-N-[4-(3-pyridinyl)butyl]-2,4-pentadienamide], the inhibition in vivo at 3 mg/kg in test [1] was determined as 0%. For the same molecule, the concentration for half-maximal inhibition (IC50) in test [2] is 60 nM. Besides, in test [3], the inhibition in vivo at 50 mg/kg worked out at 63 ± 10% and the “Percent Inhib. of PAF-Induced Bronchoconstriction, mg/Kg i.v.” value is 95 ± 2%.

As to `O=C(/C=C/C=C(c1ccc(F)cc1)c1ccc(F)cc1)NCCCCc1cccnc1` [(E)-5,5-bis(4-fluorophenyl)-N-[4-(3-pyridinyl)butyl]-2,4-pentadienamide], the inhibition in vivo at 3 mg/kg in test [1] amounted to 18%. Besides, the IC50 in test [2] is 40 nM. For the same molecule, in test [3], the inhibition in vivo at 50 mg/kg came out at 97 ± 1% and the “Percent Inhib. of PAF-Induced Bronchoconstriction, mg/Kg i.v.” value came out at 91 ± 3%.

For `O=C(/C=C/C=C(c1ccccc1C(F)(F)F)c1ccccc1C(F)(F)F)NCCCCc1cccnc1` [(E)-5,5-bis[2-(Trifluoromethyl)phenyl]-N-[4-(3-pyridinyl)butyl]-2,4-pentadienamide], the inhibition in vivo at 3 mg/kg in test [1] was 0%. In addition, the IC50 in test [2] was determined as 80 nM. For the same molecule, in test [3], the “Percent Inhib. of PAF-Induced Bronchoconstriction, mg/Kg i.v.” value was found to be 6 ± 10%.

`O=C(/C=C/C=C(c1cccc(C(F)(F)F)c1)c1cccc(C(F)(F)F)c1)NCCCCc1cccnc1` [(E)-5,5-bis[3-(trifluoromethyl)phenyl]-N-[4-(3-pyridinyl)butyl]-2,4-pentadienamide]: the inhibition in vivo at 3 mg/kg in test [1] amounted to 83%. Also, the IC50 in test [2] turned out to be 150 nM. Moreover, the “Percent Inhib. of PAF-Induced Bronchoconstriction, mg/Kg i.v.” value in test [3] is “inactive”.

As to `COc1cccc(C(=C/C=C/C(=O)N[C@H](C)CCCc2cccnc2)c2cccc(OC)c2)c1` [[R-(E)]-5,5-bis (3-methoxyphenyl)-N-[1-methyl-4-(3-pyridinyl)butyl]-2,4-pentadienamide], the inhibition in vivo at 3 mg/kg in test [1] was found to be 31%. The IC50 in test [2] amounted to 35 nM. Further, in test [3], the inhibition in vivo at 50 mg/kg is 87 ± 8% and the “Percent Inhib. of PAF-Induced Bronchoconstriction, mg/Kg i.v.” value was found to be 87 ± 4%.

In the case of `COc1cccc(C(=C/C=C/C(=O)N[C@@H](C)CCCc2cccnc2)c2cccc(OC)c2)c1` [[S-(E)]-5,5-bis(3-methoxyphenyl)-N-[1-methyl-4-(3-pyridinyl)butyl]-2,4-pentadienamide], the inhibition in vivo at 3 mg/kg in test [1] stood at 10%. For the same molecule, the IC50 in test [2] was determined as 300 nM. In addition, in test [3], the inhibition in vivo at 50 mg/kg came to 10 ± 5% and the “Percent Inhib. of PAF-Induced Bronchoconstriction, mg/Kg i.v.” value turned out to be 36 ± 4%.

The values are drawn from patent publication US4788206A, “Pentadieneamides” (Hoffmann-La Roche Inc., priority 1987, dated 1988).
